In patent US20250102493A1, “COMPOSITIONS AND METHODS FOR TREATMENT OF ANEUPLOID CANCERS” (Yale University, priority 2023, published 2025):

Legend:
MCF10A cells [1] = assay: 72-hour drug assay in MCF10A 1q-trisomic and 1q-disomic cells; format: cell-based, human; conditions: FIG. 6D
Excerpt: (§1) Following this, the cells were harvested and counted.

A2780 cells = assay: 72-hour drug assay in A2780 1q-trisomic and 1q-disomic cells; format: cell-based, human; conditions: for sensitivity of cells harboring a trisomy of chromosome 1q compared to isogenic cells containing two copies of chromosome 1q: A2780, FIG. 6D; for sensitivity of 1q disomic cells compared to 1q trisomic cells: A2780 WT (1q trisomic) and engineered 1q disomic clones C1-C4
Excerpt: as §1

NCI-60 cell line panel = conditions: NCI-60 panel (Luna et al.); cited from earlier work
HAP1 UCK2-knockout cells = assay: 72-hour drug assay in UCK2-knockout HAP1 cells; format: cell-based; conditions: haploid HAP1 cell line, UCK2 deleted with CRISPR
Excerpt: as §1
HAP1 cells harboring a CRISPR-induced frameshift mutation in the UCK2 gene were purchased from Horizon Discovery (cat. no. HZGHC007067c006). Loss of UCK2 expression was verified by western blotting.
First, as the mechanism of many cancer drugs is poorly understood (Lin, et al., Sci. Transl. Med. 11 (2019), Lin & Sheltzer, Nat. Rev. Genet. 21, 671-682 (2020)),whether the cytotoxicity of RX-3117 and 3-deazauridine requires UCK2 expression was assessed.

MCF10A cells [2] = assay: Cellular competition between 1q-trisomic and 1q-disomic MCF10A cells; format: cell-based, human
Description: For the competition experiment, two independent experiments were performed: one when cells were mixed at an 80-20 ratio and one when cells were mixed at a 90:10 ratio. Similar results were obtained in both experiments.
Whether the greater sensitivity of 1q-trisomic cells to UCK2 substrates could be used to re-direct cellular evolution away from aneuploidy and towards a disomic state with lower malignant potential was assessed (FIG. 6E). Fluorescently-labeled 1q-trisomic and 1q-disomic MCF10A cells were mixed at a ratio of 20:80 and then co-cultured the two cell populations. After nine days of growth in drug-free medium, the trisomic cells had expanded to include 75% of the culture, but when the same cell populations were grown in the presence of 500 nM 3-deazauridine, the trisomic population decreased to include only 4% of the final culture (FIG. 6F).

AGS cells = assay: 72-hour drug assay in AGS 1q-trisomic and 1q-disomic cells; format: cell-based, human
Excerpt: as §1

A2058 cells = assay: 72-hour drug assay in A2058 1q-trisomic and 1q-disomic cells; format: cell-based, human
Excerpt: as §1

DLD1 colon cancer cells = assay: Drug sensitivity of DLD1 trisomy-1 cells and parental DLD1 cells; format: cell-based; conditions: P<0.005; t-test
Description: The DLD1 trisomy 1 clone was generated as previously described in ref (Vasudevan, et al., Dev. Cell. 52, 413-428.e6 (2020)). In brief, DLD1 cells were transiently treated with 1 μM AZ3146 (Selleck Chemicals; cat. no. S2731) for 24 hours, and then the drug was washed out and the cells were allowed to recover for 24 hours. Following the recovery passage, single-cell sorting was performed to isolate individual aneuploid clones. SMASH-Seq was used to identify a clone harboring a trisomy of chromosome 1.
as §1

O=C1C=CN([C@@H]2O[C@H](CO)[C@@H](O)[C@H]2O)C(=O)C1 [3-deazauridine]
sensitivity of cells harboring a trisomy of chromosome 1q compared to isogenic cells containing two copies of chromosome 1q (MCF10A cells [1]): more sensitive | sensitivity of cells harboring a trisomy of chromosome 1q compared to isogenic cells containing two copies of chromosome 1q (A2780 cells): more sensitive | sensitivity of 1q disomic cells compared to 1q trisomic cells (A2780 cells): less sensitive | correlation of UCK2 expression with sensitivity to the compound (NCI-60 cell line panel): higher UCK2 expression correlates with greater sensitivity | response of UCK2-knockout cells to the compound (HAP1 UCK2-knockout cells): highly resistant | trisomic population in the final culture (MCF10A cells [2]; 500 nM 3-deazauridine, nine days, 1q-trisomic and 1q-disomic MCF10A mixed at 20:80, 75% in drug-free medium): 4% | effect on outgrowth of the 1q-trisomic subpopulation (MCF10A cells [2]; trisomic and disomic MCF10A mixed at 20% to 80%, FIG. 6F): prevents the outgrowth of the 1q-trisomic subpopulation

Nc1ccn([C@@H]2C(F)=C(CO)[C@@H](O)[C@H]2O)c(=O)n1 [RX-3117]
sensitivity of cells harboring a trisomy of chromosome 1q compared to isogenic cells containing two copies of chromosome 1q (MCF10A cells [1]): more sensitive | effect of ectopic overexpression of UCK2 cDNA on sensitivity to the compound (A2780 cells; 1q-disomic A2780 cells): increase sensitivity | effect of deleting a single copy of UCK2 on sensitivity to the compound (A2780 cells; 1q-trisomic A2780 cells): decrease sensitivity | sensitivity of cells harboring a trisomy of chromosome 1q compared to isogenic cells containing two copies of chromosome 1q (A2780 cells): more sensitive | sensitivity of 1q disomic cells compared to 1q trisomic cells (A2780 cells): less sensitive | correlation of UCK2 expression with sensitivity to the compound (NCI-60 cell line panel): higher UCK2 expression correlates with greater sensitivity | difference in sensitivity between 1q-trisomic and 1q-disomic cells (AGS cells): not evident | response of UCK2-knockout cells to the compound (HAP1 UCK2-knockout cells): highly resistant | difference in sensitivity between 1q-trisomic and 1q-disomic cells (A2058 cells): not evident | sensitivity of DLD1 trisomy-1 cells compared to the parental DLD1 cells (DLD1 colon cancer cells): significantly more sensitive
